Measurements as given in the METLIN SMRT retention time set (Domingo-Almenara et al. 2019).

Assay: gradient 5% acetonitrile 3 min, to 50% in 2 min, to 85% in 15 min, held 3 min, 100 µL/min
Details: column: Zorbax Extend-C18 2.1 x 50 mm; eluents: water / acetonitrile, 0.1% formic acid
Outline: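 Mixtures of ~100 pure standards were chromatographed on a Zorbax Extend-C18 column (2.1 × 50 mm, 1.8 μm) at 100 μL/min using water and acetonitrile, each with 0.1% formic acid. Detection used a quadrupole time-of-flight mass spectrometer in positive and negative ionization mode, and data collection spanned 3 months. Retention time was obtained from adduct peaks picked computationally and each checked manually.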

RP-LC retention time [s]	Compound
942	CCc1ccc2c(c1)cc(S(=O)(=O)c1ccccc1)c(=O)n2CC(=O)NC1CCCC1
989	O=C(Nc1nc(-c2ccccc2)ns1)c1ccccc1Cl
693	Cc1cc(C)n(-c2ccnc(N3CCC(C(=O)NC4CC4)CC3)n2)n1
663	CC(=O)N1CCCCC1c1nc(-c2cccnc2)no1 (configuration not stated)
684	CCCS(=O)(=O)N1CCC(c2nnc(C3CC3)s2)CC1
632	CNC(=O)C1CCCN(c2nc3ncn(CC(=O)NCc4ccc(OC)cc4)c(=O)c3s2)C1 (configuration not stated)
733	Cn1c(=O)n([C@@H]2CCN(C(=O)CCc3nc4ccccc4s3)C2)c2ncccc21
1010	Clc1ccc(OCc2nc(-c3cccc(-c4ccn[nH]4)c3)no2)cc1
680	CCc1ccc(NC(=O)CSc2ccc(N3CCC(C(=O)NC(C)C)CC3)nn2)cc1
1030	O=C(NCc1cc(F)cc(F)c1)c1sc2ncccc2c1-n1cccc1
786	COC(=O)c1cccc(NC(=O)Cn2nc3c(N4CCC(C)CC4)nccn3c2=O)c1
660	Cc1ccc(F)cc1NC(=O)Cn1cnc(C)c(C)c1=O
938	CCc1cc(=O)n(CC(=O)Nc2cc(C)on2)c(-c2ccccc2)n1
1160	COc1ccc(OC)c(-c2csc(-c3nnn(-c4ccc(C)cc4)c3N)n2)c1
679	CCc1noc(-c2cccnc2N2CCCN(Cc3ccccc3Cl)CC2)n1
950	Cc1cccc(C(=O)Nc2ccc(N3CCN(C4CCCCC4)C3=O)nc2)c1
849	CC1=C(c2ccccc2)S(=O)(=O)N=C1N1CCCN(C(=O)Nc2cccc(F)c2)CC1
853	Cc1csc(-c2cc(S(=O)(=O)Nc3ccc(F)cc3)cn2CC(=O)N2CCCC2)n1

RP-LC retention time [s]	Compound
658	COc1ccc(CC(=O)N2CCC(n3cnnc3C3CC3)CC2)cc1Cl
818	O=C(Nc1cccn2c(C3CCC3)nnc12)c1cc2ccccc2[nH]1
778	Cn1cc(-c2noc(-c3cccs3)n2)ccc1=O
913	CCOc1ccc(NC(=O)C2(C)Oc3cccnc3N(CC)C2=O)cc1 (configuration not stated)
585	O=C(O)C(c1ccccc1)n1cnnn1 (configuration not stated)
679	O=C(O)COc1ccc(OCCNC[C@H](O)COc2ccccc2)cc1
598	O=C(CN1CCc2[nH]c3c(Cl)cccc3c(=O)c2C1)NCc1ccccc1
824	CC(C)n1cnc(S(=O)(=O)N2CCC(C(=O)Nc3ccc(Cl)cc3)CC2)c1
669	O=C(COc1ccc(Cl)cc1Cl)Nc1nnc(-c2ccncc2)o1
810	NS(=O)(=O)c1ccc(CCNCc2ccc(-c3ccc(Cl)cc3)o2)cc1
634	CCOc1ccc(CN2C[C@@H]3C(=O)N(CCc4ccccc4)C(=O)[C@@H]3C2)cc1OC
589	Cc1ccc(-n2nc3c(N4CCCC(C(=O)NCCN5CCOCC5)C4)nnc(C)c3c2C)cc1 (configuration not stated)
604	Cc1cc(NC(=O)C2CCN(c3ccc(-c4cccs4)nn3)CC2)sn1
778	CCn1ccc(C(=O)Nc2cnc(N3CCCCC3)nc2)n1
660	CC1CCN(C(=O)c2csc(-c3ccc(N4CCCC4)nc3)n2)CC1
778	CN(C)c1ccc(C(=O)NC2CCN(c3ccc(F)cc3)C2=O)cc1 (configuration not stated)
734	Cn1nc(C(=O)N2CCCC2)c2c1CCN(C(=O)CCC(=O)NCCC1=CCCCC1)C2
797	O=C(Cn1c(=O)c(=O)n(Cc2ccccc2)c2ncccc21)NCCc1ccco1

Compound	RP-LC retention time [s]
Cc1cc(OCC(=O)N2CCC[C@H]2C(=O)O)c2c3c(c(=O)oc2c1)CCCC3	754
